Test results from patent US9181588B2, “Methods of treating breast cancer with taxane therapy” (The University of Utah Research Foundation, priority 2011, dated 2015).

Tested on: node-positive breast cancers
Assay: GEICAM/9906 randomized phase III adjuvant trial, FEC versus FEC-P: overall and disease-free survival, by PAM50 proliferation score
Format: in vivo, human
Conditions: FEC-P vs. FEC; lowest quartile of 11-gene proliferation score
Procedure: The primary endpoint of the […]/9906 clinical trial was disease-free survival. Secondary endpoints were: (a) overall survival; (b) prognostic and predictive value of molecular/genomic markers and (c) safety. The study was performed in accordance with the Declaration of Helsinki, approved by the ethics committees at all participating institutions and the Spanish Health Authority, and it was registered at www.clinicaltrials.gov (identifier code: NCT00129922). All patients provided written informed consent for therapy randomization and molecular analyses. […] Samples were gene expression profiled using the previously described RT-qPCR assay and analyzed using the clinical algorithm for subtype prediction (Parker et al., J Clin Oncol 27:1160-1167, 2009; Amp Laboratories: PAM50 Breast Cancer Intrinsic Classifier Information. at the World Wide Web (www) aruplab.com/Lab-Tests/General-Oncology/PAM50/index.jsp). […] In addition to the subtype classification, a PAM50proliferation score was calculated using the previously described 11-gene signature (BIRC5, CCNB1, CDC20, CDCA1, CEP55, KNTC2, MKI67, PTTG1, RRM2, TYMS, UBE2C) (Nielsen et al., Clin Cancer Res 16(21):5222-32, 2010). The significance of proliferation was evaluated using a classification into quartiles, and using the proliferation scores as a continuous variable. […]

Compound: CC(=O)O[C@H]1C(=O)[C@@]2(C)[C@H]([C@H](OC(=O)c3ccccc3)[C@]3(O)C[C@H](OC(=O)[C@H](O)[C@@H](NC(=O)c4ccccc4)c4ccccc4)C(C)=C1C3(C)C)[C@]1(OC(C)=O)CO[C@@H]1C[C@@H]2O [paclitaxel]
- HR for OS, low proliferation score: 0.232
